The text below walks through data of patent US20210070747A1, “2(1H)-QUINOLINONE DERIVATIVE” (priority 2017, published 2021).

A word on the IC50: it is the concentration that gives 50% inhibition. As usually defined, the MIC is the smallest concentration in the dilution series that meets the test's criterion for growth inhibition.

Experiment [1] deals with T1, E. coli DNA gyrase (Escherichia coli, UniProt P0AES6).
T1 construct: made in house; host or cells: E. coli BL21 (DE3)
In words: Test for evaluating the activity of inhibiting E. coli DNA gyrase enzyme (Method 1, supercoiling, Inspiralis enzyme). Type of experiment: biochemical. Summed up:
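Relaxed pBR322 (1 ng/μL) supercoiled by E. coli gyrase (0.006 U/μL final) with 0.5 mmol/L ATP in 20 mmol/L Tris-HCl pH 8.0, 8 mmol/L MgCl2, 35 mmol/L ammonium acetate, 60 min, room temperature. Stopped with H19; supercoiled/relaxed ratio read at 485/535 nm; inhibition curve across compound concentrations.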

Experiment [2] deals with E. Coli ATCC 25922. In words: Test for evaluating antibacterial activity (E. coli), broth microdilution MIC. It is filed as cell-based. Conditions: Escherichia coli, ATCC25922; 35° C., 18 hours, cation-adjusted Mueller-Hinton medium. The method, boiled down:
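Broth microdilution per modified CLSI method in cation-adjusted Mueller-Hinton medium. Inoculum from overnight heart infusion agar growth, McFarland 0.5 suspension diluted 10-fold; incubation 35° C for 18 hours. MIC taken as lowest drug concentration with no visible growth.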
Background: Dilution methods test growth across graded concentrations, often in twofold steps.

The target in experiment [3] is T2, E. coli topoisomerase IV (Escherichia coli, UniProt P20083).
T2 construct: purchased Inspiralis
T2 sequence (P20083 whole entry): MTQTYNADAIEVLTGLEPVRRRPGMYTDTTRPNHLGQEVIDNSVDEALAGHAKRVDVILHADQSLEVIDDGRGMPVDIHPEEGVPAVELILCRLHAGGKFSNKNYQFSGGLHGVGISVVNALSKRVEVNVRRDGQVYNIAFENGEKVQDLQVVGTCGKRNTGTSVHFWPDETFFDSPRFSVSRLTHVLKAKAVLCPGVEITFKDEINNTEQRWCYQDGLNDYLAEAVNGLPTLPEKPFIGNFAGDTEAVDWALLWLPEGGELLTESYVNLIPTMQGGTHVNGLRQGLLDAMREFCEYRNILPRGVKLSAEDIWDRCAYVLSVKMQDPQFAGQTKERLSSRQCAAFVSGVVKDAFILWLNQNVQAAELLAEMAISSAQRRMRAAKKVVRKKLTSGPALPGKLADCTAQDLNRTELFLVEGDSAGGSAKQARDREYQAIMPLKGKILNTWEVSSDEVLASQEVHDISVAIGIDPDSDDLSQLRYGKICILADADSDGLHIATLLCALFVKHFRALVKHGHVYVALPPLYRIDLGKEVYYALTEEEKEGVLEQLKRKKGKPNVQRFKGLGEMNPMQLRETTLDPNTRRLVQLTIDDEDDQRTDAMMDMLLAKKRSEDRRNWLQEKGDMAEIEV
T2 sequence (P0AFI2 whole entry, further chain): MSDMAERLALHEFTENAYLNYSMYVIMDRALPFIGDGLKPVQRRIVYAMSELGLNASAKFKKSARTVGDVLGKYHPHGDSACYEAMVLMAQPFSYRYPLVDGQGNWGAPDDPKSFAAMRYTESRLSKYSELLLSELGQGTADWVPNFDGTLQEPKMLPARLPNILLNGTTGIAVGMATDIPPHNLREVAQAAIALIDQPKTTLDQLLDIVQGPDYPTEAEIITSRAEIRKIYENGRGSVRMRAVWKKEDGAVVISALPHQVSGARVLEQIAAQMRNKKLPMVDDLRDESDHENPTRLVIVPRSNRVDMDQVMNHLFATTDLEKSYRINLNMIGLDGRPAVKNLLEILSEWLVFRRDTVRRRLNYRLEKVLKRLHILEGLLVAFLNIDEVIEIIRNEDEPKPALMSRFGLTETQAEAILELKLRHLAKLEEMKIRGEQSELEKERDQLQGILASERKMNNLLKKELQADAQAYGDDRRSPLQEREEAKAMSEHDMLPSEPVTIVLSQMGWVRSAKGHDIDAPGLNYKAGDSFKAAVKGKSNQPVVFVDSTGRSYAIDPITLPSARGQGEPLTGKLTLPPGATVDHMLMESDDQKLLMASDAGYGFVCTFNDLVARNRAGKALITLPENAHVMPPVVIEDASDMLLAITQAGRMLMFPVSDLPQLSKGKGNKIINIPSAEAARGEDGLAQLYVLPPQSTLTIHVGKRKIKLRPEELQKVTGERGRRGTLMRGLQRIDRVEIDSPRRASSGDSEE
Put plainly: Test for evaluating the activity of inhibiting E. coli topoisomerase IV enzyme (relaxation). Type of experiment: biochemical. How it is done:
The enzymatic activity of E. coli topoisomerase IV was measured by a method comprising reacting topoisomerase IV and its substrate, supercoiled pBR322 (Inspiralis), in the presence of ATP and detecting the post-reaction supercoiled pBR322/relaxed pBR322 ratio with H19.
Specifically, to 2 ng/μL of supercoiled pBR322, E. coli topoisomerase IV enzyme (Inspiralis) was added at a final concentration of 0.0075 U/μL and the mixture was incubated for 30 minutes at room temperature. This reaction was carried out in 20 mmol/L tris-HCl buffered solution (pH 8.0) comprising 0.5 mmol/L ATP, 0.005% bridge 35, 35 mmol/L ammonium acetate, 8 mmol/L magnesium chloride, 4.6% glycerol, and 1 mmol/L dithiothreitol. To the reaction mixture, H19 was added to bring the reaction to an end; thereafter, the supercoiled pBR322/relaxed pBR322 ratio was detected at excitation wavelength/emission wavelength=485 nm/535 nm. An inhibition curve was obtained by allowing the analyte compound to be present at varying concentrations during the reaction described above.

For experiment [4], the system named is N. gonorrhoeae ATCC 49226. Put plainly: Test for evaluating antibacterial activity (N. gonorrhoeae), broth microdilution MIC. It is filed as cell-based. The following applies: Neisseria gonorrhoeae, ATCC49226; 35° C., 24 hours, gonococcal broth. The method, boiled down:
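Broth microdilution in gonococcal broth with 1% supplement C, inoculum from overnight chocolate II agar culture at McFarland 0.5 diluted 5-fold.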

Setting [5] is: Method 1, read-out: E. Coli Gyrase supercoiling IC50.
Setting [6] is: read-out: E. Coli TopoIV relaxation IC50.

≈ marks a conversion by molar mass, not a printed value. Counter-ions that a name gives are not always drawn. Like-named read-outs stand apart in the source and are kept apart here. Some results are limits rather than exact numbers.

Turning to `CNc1cc(F)cc2cc(C(=O)Nc3ccccc3CN(C)C3CCCCC3)c(=O)[nH]c12` [Example 52, N-(2-{[cyclohexyl(methyl)amino]methyl}phenyl)-6-fluoro-8-(methylamino)-2-oxo-1,2-dihydroquinoline-3-carboxamide], the figures for the IC50 in experiment [1] (setting [5]) and in experiment [3] (setting [6]) were 0.00247 µM and 0.519 µM, respectively. For the same compound, the MIC in experiment [2] is 16 mg/L (≈ 36.7 µM); in experiment [4], 0.5 mg/L (≈ 1.15 µM).

Turning to `CNc1cc(F)cc2cc(C(=O)Nc3cnc(C(=O)O)nc3)c(=O)[nH]c12` [Example 65, 5-[[6-Fluoro-8-(methylamino)-2-oxo-1,2-dihydroquinoline-3-carbonyl]amino]pyrimidine-2-carboxylic Acid], the IC50 is 0.00095 µM in experiment [1] (setting [5]) and 0.0325 µM in experiment [3] (setting [6]). Further, the MIC in experiment [2] is greater than 16 mg/L; in experiment [4] it was 0.5 mg/L (≈ 1.4 µM).

Turning to `CNc1cc(F)cc2cc(C(=O)Nc3ccc(C(=O)O)cc3CN(C)C3CCCCC3)c(=O)[nH]c12` [Example 70, 3-{[cyclohexyl (methyl)amino]methyl}-4-{[6-fluoro-8-(methylamino)-2-oxo-1,2-dihydroquinoline-3-carbonyl]amino} bezoic acid-hydrochloride], the results for the IC50 in experiment [1] and in experiment [3] were 0.00053 µM and 0.0474 µM, respectively. Moreover, the MIC turned out to be 8 mg/L in experiment [2] and 0.03 mg/L in experiment [4].
